Test [1] has as its system Col4α1 (type IV collagen). The test is described as follows: RT-quantitative PCR of Col4α1 (type IV collagen) mRNA expression in AGE-stimulated cultured mouse mesangial cells. Format: cell-based. To be noted: for Col4α1 (%): relative value, AGE 300 μg/ml+Palovarotene 0.5 μM = 100%. The protocol: (§1) The glomeruli were isolated from four-week-old wild-type C57BL/6J mice according to the method of Davies M. et al. (Kidney Int. 1994; 45(2):320-7)^36 with necessary modifications and primary culture of the glomeruli was conducted in order to establish mouse mesangial cell strains. AGEs used for cell stimulation were prepared according to the method of Doi T. et al. (Proc, Natl. Acad. Sci. U.S.A. 1992; 89:2873-2877)^37 with necessary modifications. The cultured mouse mesangial cells were grown to confluence, subjected to serum starvation using Opti-MEM (Invitrogen). Then, the cells were treated with (1) no stimulation, (2) AGE 300 μg/ml; (3) AGE 300 μg/ml+palovarotene 0.5 μM; or (4) AGE 300 μg/ml+palovarotene 1 μM. Twenty-four hours after the treatment, RNA extraction was performed by AGPC method. RT-quantitative PCR was performed with the resultant RNA, followed by evaluation of mRNA expression levels by the comparative Ct method (ΔΔ Ct method).

The subject of test [2] is streptozocin-induced diabetic mice. The test is described as follows: Histological evaluation of the kidney in STZ-induced diabetic mice on high fat diet. The class given is in vivo, mouse. To be noted: DM+Palo vs DM; palovarotene 60 μg/kg i.p. twice a week, 12 weeks. How it is done:
Streptozocin (Wako) was administered to 12-15 week-old ICR mice (purchased from CLEA Japan) intraperitoneally (I.P.) for five consecutive days at 50 mg/kg per injection to thereby evoke diabetes. Four weeks after the STZ administration, mouse diet was changed to a high fat diet HFD60 (Oriental Yeast) and, at the same time, intraperitoneal administration of palovarotene at 60 μg/kg twice a week was started. Twelve weeks later, the mice were dissected, followed by histological evaluation.

The subject of test [3] is TGF-β1. Kind of test: RT-quantitative PCR of TGF-β1 mRNA expression in AGE-stimulated cultured mouse mesangial cells. The class given is cell-based. To be noted: for TGF-β1 (%): relative value, AGE 300 μg/ml+Palovarotene 0.5 μM = 100%. The protocol: as §1
Test [4] deals with BMP4. The test is described as follows: RT-quantitative PCR of BMP4 mRNA expression in AGE-stimulated cultured mouse mesangial cells. The class given is cell-based. To be noted: for BMP4 (%): relative value, AGE 300 μg/ml+Palovarotene 0.5 μM = 100%. The protocol:
as §1

In test [5] the test system is UUO mice. The test is described as follows: Unilateral ureter obstruction (UUO) mouse renal tubulointerstitial fibrosis model, Sirius Red staining. The class given is in vivo. To be noted: UUO+Palo vs UUO; palovarotene 1 mg/kg i.p. for 6 days, day 7 after ureter ligation. How it is done: Unilateral ureter obstruction (UUO) model is a model in which renal interstitial fibrosis is induced by feeding for seven days under ureter ligation. Briefly, the kidney of a mouse is exposed extraperitoneally by a unilateral dorsal incision. Then, ureter ligation is performed at 2 to 3 spots at intervals of 1 mm with surgical suture, which leads to decreased renal blood flow and glomerular filtration rate. Further, macrophages infiltrate into the tubulointerstitium, apoptosis of tubular epithelial cells occurs, and increase of fibroblasts and extracellular matrix protein progresses in the interstitium, which leads to interstitial fibrosis. In this model, fibrosis is evoked in a short period of time and there is no complication of uremia since no toxic substance is used. Thus, this is an interstitial fibrosis model with high reproducibility. A UUO model was established using 10-12 week-old ICR mice (purchased from CLEA Japan). […] UUO group consists of mice which were kept for 7 days under ureter ligation to thereby induce renal interstitial fibrosis. Palovarotene group consists of mice which received intraperitoneal administration of palovarotene (1 mg/kg) for 6 consecutive days starting from one day after UUO treatment. Mice in each group were dissected 7 days after UUO treatment, followed by histological evaluation of the kidney by Sirius Red staining.

Setting [6] is: AGE 300 μg/ml + compound 0.5 μM, 24 h.
Where [7] appears, read: AGE 300 μg/ml + compound 1.0 μM, 24 h.
Where [8] appears, read: Example 4, 0.5 and 1.0 μM, AGE 300 μg/ml, comparison with palovarotene.

On to `CC1(C)CCC(C)(C)c2cc(Cn3cccn3)c(/C=C/c3ccc(C(=O)O)cc3)cc21` [Palovarotene, 4-[(E)-2-[5,5,8,8-tetramethyl-3-(pyrazol-1-ylmethyl)-6,7-dihydronaphthalen-2-yl]ethenyl]benzoic acid], for which, in test [1] (setting [6]), the “Col4α1 (%)” value is 100%. The “Col4α1 (%)” value in test [1] (setting [7]) is 50%. Further, the “inhibitory effect on Col4α1 (type IV collagen) expression (in words)” value in test [1] (setting [8]) is “dose-dependent inhibitory effect”. In addition, the “production of Col4α1 (type IV collagen) increased by AGE stimulation” value in test [1] (palovarotene 0.5 μM, AGE 300 μg/ml, 24 h, FIG. 2C) is on record as “completely inhibited”. Also, in test [2], the “Smad1 activation (pSmad1)” value is “inhibition of Smd1 activation”, the “WT1 expressed in the podocyte nuclei (WT1)” value was “inhibition of reduction of WT1”, the “expansion of the glomerular mesangial area (PAS staining)” value was “inhibition of expansion of the glomerular mesangial area” and the “nephrin-expressing area in glomerular podocytes (Nephrin)” value is “inhibition of reduction of nephrin-expressing area”. For the same compound, in test [2], the “phosphorylation of Smad2/3” value is listed as “strongly inhibited” and the “type IV collagen expression (Col4)” value is on record as “reduction of type IV collagen expression”. Moreover, the “TGF-β1 (%)” value in test [3] (setting [6]) was determined as 100%. The “TGF-β1 (%)” value in test [3] (setting [7]) came out at 70%. Besides, the “TGF-β expression increased by AGE stimulation” value in test [3] (AGE 300 μg/ml + palovarotene 0.5 or 1 μM, 24 h, FIG. 2A) is “strongly inhibited”. For the same compound, the “inhibitory effect on TGF-01 expression (in words)” value in test [3] (setting [8]) is recorded as “dose-dependent inhibitory effect”. In test [4] (setting [6]), the “BMP4 (%)” value is on record as 100%. In addition, the “BMP4 (%)” value in test [4] (setting [7]) was 60%. Also, the “BMP4 expression increased by AGE stimulation” value in test [4] (AGE 300 μg/ml + palovarotene 0.5 or 1 μM, 24 h, FIG. 2B) was “clearly inhibited by palovarotene in a dose dependent manner”. In addition, the “inhibitory effect on BMP4 expression (in words)” value in test [4] (setting [8]) is “dose-dependent inhibitory effect”. The “inhibition of BMP4 expression increased by AGE stimulation” value in test [4] (palovarotene 1 μM, AGE 300 μg/ml, 24 h, FIG. 2B) is listed as “almost complete”. In test [5], the “degree of staining of the tubulointerstitium with Sirius Red” value is “clearly lower than that in the kidney tissue of UUO mice” and the tubulointerstitial fibrosis result was “markedly inhibits”.

The values are drawn from US10828279B2, “Prophylactic and/or therapeutic drug for diabetic nephropathy” (HuBit genomix, Inc., priority 2018, dated 2020).
